PubChem BioAssay (NCI)
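Exposure lasted 48 hours, with cells grown in 96-well plates and compounds tested at five concentrations. The concentration for full growth arrest is given as TGI.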

Tests used:
Test in all cases: NCI tumour cell line growth inhibition, 48 h
A549 NSCLC = system: A549 NSCLC
CCRF-CEM leukemia = system: CCRF-CEM leukemia
COLO 205 colon = system: COLO 205 colon
HCT-116 colon = system: HCT-116 colon
HT29 colon = system: HT29 colon
K-562 leukemia = system: K-562 leukemia
M14 melanoma = system: M14 melanoma
MDA-MB-231 breast = system: MDA-MB-231 breast
NCI-H23 lung = system: NCI-H23 lung
NCI/ADR-RES ovarian = system: NCI/ADR-RES ovarian
OVCAR-5 ovarian = system: OVCAR-5 ovarian
PC-3 prostate = system: PC-3 prostate
RXF 393 renal = system: RXF 393 renal
SNB-19 CNS = system: SNB-19 CNS
SNB-75 CNS = system: SNB-75 CNS
SR leukemia = system: SR leukemia

Row | Compound | TGI (A549 NSCLC) [µM] | TGI (CCRF-CEM leukemia) [µM] | TGI (COLO 205 colon) [µM] | TGI (HCT-116 colon) [µM] | TGI (HT29 colon) [µM] | TGI (K-562 leukemia) [µM] | TGI (M14 melanoma) [µM] | TGI (MDA-MB-231 breast) [µM] | TGI (NCI-H23 lung) [µM] | TGI (NCI/ADR-RES ovarian) [µM] | TGI (OVCAR-5 ovarian) [µM] | TGI (PC-3 prostate) [µM] | TGI (RXF 393 renal) [µM] | TGI (SNB-19 CNS) [µM] | TGI (SNB-75 CNS) [µM] | TGI (SR leukemia) [µM]
1 | Cc1c(C)c(S(=O)(=O)N(CCCN)OCCCN)c(C)c2c1OC(C)(C)C2 | > 100 | 90 | 32.5 | > 100 | > 100 | > 100 | 34.1 | 33.3 | > 100 | > 100 | 61.6 | 43.3 | 48.9 | 63.5 | 59.5 | > 100
2 | COc1ccc(C(=O)/C=C/c2ccc(OCC(=O)N3CCN(c4ccccc4)CC3)cc2)cc1 | > 100 | > 100 | > 75.2 | > 100 | > 100 | > 100 | > 100 | > 53.2 | > 100 | > 100 | > 100 | > 100 | 74 | 65.1 | 62.5 | > 60.4
3 | O=[N+]([O-])/C(C(Cl)=C(Cl)Cl)=C(/Sc1ccccc1)N1CCCCC1 | > 100 | > 100 | > 100 | > 100 | > 100 | > 100 | > 100 | > 100 | > 100 | > 100 | > 100 | > 100 | > 100 | > 100 | > 100 | > 26.4
4 | O=C(NC(Nc1ccc(F)c(Cl)c1)(C(F)(F)F)C(F)(F)F)OCc1ccccc1 | > 100 | > 100 | 35.1 | > 100 | > 100 | > 100 | > 100 | 33.5 | > 100 | > 100 | > 100 | > 100 | > 100 | 51 | > 100 | 32.7
5 | CC#CCCN(CC#N)Cc1ccccc1 | > 100 | > 100 | > 100 | > 100 | > 100 | > 100 | > 100 | > 100 | > 100 | > 100 | > 100 | > 100 | > 100 | > 100 | > 100 | > 100
6 | COc1cc2c(cc1O)[C@@H]1Cc3c(cc(OC)c(OC)c3Oc3cc4c(cc3OC)CCN(C)[C@@H]4Cc3ccc(O)cc3)[C@H](C2)N1C | > 100 | > 72.1 | 38.2 | > 100 | > 100 | 45.8 | 33.9 | 98.2 | > 100 | > 100 | > 100 | > 100 | 37.4 | > 100 | > 80 | 19.3
